The values that follow come from US11229623B2 (GlaxoSmithKline Intellectual Property (No.2) Limited, priority 2016, dated 2022).

By pIC50 is commonly meant the negative decadic logarithm of the IC50, by convention in mol/L.

pIC50: −log10 of the molar value.

The target in one assay is T1, human TRPV4 (Homo sapiens, UniProt Q9HBA0).
T1 construct: expressed in transfected cells; host or cells: BHK/AC9 cells transduced with BacMam virus
T1 sequence (Q9HBA0 whole entry): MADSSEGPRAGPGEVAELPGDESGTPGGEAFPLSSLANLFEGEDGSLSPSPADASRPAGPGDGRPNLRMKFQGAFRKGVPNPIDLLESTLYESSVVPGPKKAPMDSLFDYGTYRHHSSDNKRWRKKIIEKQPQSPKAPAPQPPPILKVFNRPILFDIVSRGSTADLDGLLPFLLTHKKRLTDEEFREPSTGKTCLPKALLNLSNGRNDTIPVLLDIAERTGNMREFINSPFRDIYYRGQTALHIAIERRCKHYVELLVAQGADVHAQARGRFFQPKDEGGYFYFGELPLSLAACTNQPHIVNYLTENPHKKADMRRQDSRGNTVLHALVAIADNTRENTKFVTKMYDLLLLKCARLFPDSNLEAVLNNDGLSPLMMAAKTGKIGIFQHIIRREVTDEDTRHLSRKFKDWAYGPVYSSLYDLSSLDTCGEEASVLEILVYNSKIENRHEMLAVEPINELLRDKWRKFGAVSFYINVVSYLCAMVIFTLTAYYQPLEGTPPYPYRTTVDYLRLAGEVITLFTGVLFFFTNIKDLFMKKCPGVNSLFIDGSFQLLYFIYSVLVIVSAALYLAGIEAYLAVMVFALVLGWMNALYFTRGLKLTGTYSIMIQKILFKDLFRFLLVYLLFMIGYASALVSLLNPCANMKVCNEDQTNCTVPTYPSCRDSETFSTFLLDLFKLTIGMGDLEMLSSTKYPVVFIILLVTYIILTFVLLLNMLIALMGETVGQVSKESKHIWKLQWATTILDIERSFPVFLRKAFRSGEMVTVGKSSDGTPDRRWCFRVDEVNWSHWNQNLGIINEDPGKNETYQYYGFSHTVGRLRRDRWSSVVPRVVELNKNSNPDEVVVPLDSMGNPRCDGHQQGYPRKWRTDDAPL
The assay can be described thus: FLIPR assay for hTRPV4 expressed in BHK cells: inhibition of Agonist Compound-induced calcium signal. The assay is classed as cell-based. Particulars: hTRPV4 FLIPR assay; average in at least one set of experimental runs; read-out: average IC50. How it is done: FLIPR Assay for hTRPV4 Expressed in BHK Cells:
TRPV4 channel activation results in an influx of divalent and monovalent cations including calcium. The resulting changes in intracellular calcium were monitored using a calcium specific fluorescent dye Fluo-4 (MDS Analytical Technologies). BHK/AC9 cells transduced with BacMam virus expressing the human TRPV4 gene at a MOI of 78 were plated in a 384 well poly-D lysine coated plate (15,000 cells/well in 50 μL culture medium containing DMEM/F12 with 15 mM HEPES, 10% FBS, 1% Penicillin-Streptomycin and 1% L-glutamine). Cells were incubated for 24 hours at 37° C. and 5% CO2. Culture medium was then aspirated using a Tecan plate-washer and replaced with 20 μL/well of dye loading buffer: HBSS, 500 μM Brilliant Black (MDS Analytical Technologies), and 2 μM Fluo-4 AM. Dye loaded plates were then incubated in the dark at room temperature for 1-1.5 hours.
For `N#Cc1cc(C(F)(F)F)ccc1S(=O)(=O)N1C[C@H](Oc2ccc(Cl)cc2)[C@](O)(CO)C1` [Example 6, 2-(((3R,4S)-4-(4-chlorophenoxy)-3-hydroxy-3-(hydromethyl)pyrrolidin-1-yl)sulfonyl)-5-(trifluoromethyl)benzonitrile], the pIC50 was 8.52.

Staying with this assay, now noted: hTRPV4 in BHK/AC9 cells, FLIPR calcium signal, agonist at EC80; reported as range class; read-out: IC50.
On to `N#Cc1ccc(O[C@H]2CN(S(=O)(=O)c3ccc(C(F)(F)F)cc3C#N)C[C@@]2(O)CO)cc1F` [Example 1, 4-(((3S,4R)-1-((2-cyano-4-(trifluoromethyl)phenyl)sulfonyl)-4-hydroxy-4-(hydroxymethyl)pyrrolidin-3-yl)oxy)-2-fluorobenzonitrile], for which the pIC50 was 8.00 to 10.00.

On to `N#Cc1ccc(O[C@H]2CN(S(=O)(=O)c3ccc(Cl)cc3Cl)C[C@@]2(O)CO)cc1F` [Example 2, 4-(((3S,4R)-1-((2,4-dichlorophenyl)sulfonyl)-4-hydroxy-4-(hydroxymethyl)pyrrolidin-3-yl)oxy)-2-fluorobenzonitrile], for which the negative logarithm of the IC50 (pIC50) is 8.00 to 10.00.

As to `N#Cc1ccc(O[C@H]2CN(S(=O)(=O)c3ccc(Cl)cc3C#N)C[C@@]2(O)CO)cc1F` [Example 3, 4-(((3S,4R)-1-((4-chloro-2-cyanophenyl)sulfonyl)-4-hydroxy-4-(hydroxymethyl)pyrrolidin-3-yl)oxy)-2-fluorobenzonitrile], the negative-log IC50 (pIC50) was 8.00 to 10.00.

For `O=S(=O)(c1ccc(Cl)cc1Cl)N1C[C@H](Oc2ccc(F)c(F)c2)[C@](O)(CO)C1` [Example 4, (3R,4S)-1-((2,4-dichlorophenyl)sulfonyl)-4-(3,4-difluorophenoxy)-3-(hydroxymethyl)pyrrolidin-3-ol], the pIC50 is 7.00 to 8.00.

Consider `N#Cc1ccc(O[C@H]2CN(S(=O)(=O)c3ccc(C(F)(F)F)nc3)C[C@@]2(O)CO)cc1F` [Example 5, 2-fluoro-4-(((3S,4R)-4-hydroxy-4-(hydroxymethyl)-1-((6-(trifluoromethyl)pyridin-3-yl)sulfonyl)pyrrolidin-3-yl)oxy)benzonitrile], for which the negative-log IC50 (pIC50) is 6.00 to 7.00.

`N#Cc1cc(C(F)(F)F)ccc1S(=O)(=O)N1C[C@H](Oc2ccc(Cl)cc2)[C@](O)(CO)C1` [Example 6, 2-(((3R,4S)-4-(4-chlorophenoxy)-3-hydroxy-3-(hydromethyl)pyrrolidin-1-yl)sulfonyl)-5-(trifluoromethyl)benzonitrile]: the negative logarithm of the IC50 (pIC50) is 8.00 to 10.00.

For `N#Cc1cc(C(F)(F)F)ccc1S(=O)(=O)N1C[C@H](Oc2ccc3nonc3c2)[C@](O)(CO)C1` [Example 7, 2-(((3R,4S)-4-(benzo[c][1,2,5]oxadiazol-5-yloxy)-3-hydroxy-3-(hydroxymethyl)pyrrolidin-1-yl)sulfonyl)-5-(trifluoromethyl)benzonitrile], the negative logarithm of the IC50 (pIC50) was 8.00 to 10.00.

Take `N#Cc1cc(Cl)ccc1S(=O)(=O)N1C[C@H](Oc2ccc(F)c(F)c2)[C@](O)(CO)C1` [Example 8, 5-chloro-2-(((3R,4S)-4-(3,4-difluorophenoxy)-3-hydroxy-3-(hydroxymethyl)pyrrolidin-1-yl)sulfonyl)benzonitrite]: the negative logarithm of the IC50 (pIC50) was 8.00 to 10.00.

On to `N#Cc1ccc(O[C@H]2CN(S(=O)(=O)c3ccc(C(F)(F)F)cc3C#N)C[C@@]2(O)CO)c(F)c1` [Example 9, 2-(((3R,4S)-4-(4-cyano-2-fluorophenoxy)-3-hydroxy-3-(hydroxymethyl)pyrrolidin-1-yl)sulfonyl)-5-(trifluoromethyl)benzonitrile], for which the negative logarithm of the IC50 (pIC50) was 8.00 to 10.00.

Take `COc1cc(C#N)ccc1O[C@H]1CN(S(=O)(=O)c2ccc(C(F)(F)F)cc2C#N)C[C@@]1(O)CO` [Example 10, 2-(((3R,4S)-4-(4-cyano-2-methoxyphenoxy)-3-hydroxy-3-(hydroxymethyl)pyrrolidin-1-yl)sulfonyl)-5-(trifluoromethyl)benzonitrile]: the negative-log IC50 (pIC50) is 7.00 to 8.00.

Consider `N#Cc1ccc(O[C@H]2CN(S(=O)(=O)c3ccc(C(F)(F)F)cc3C#N)C[C@@]2(O)CO)cc1C(F)(F)F` [Example 11, 4-(((3S,4R)-1-((2-cyano-4-(trifluoromethyl)phenyl)sulfonyl)-4-hydroxy-4-(hydroxymethyl)pyrrolidin-3-yl)oxy)-2-(trifluoromethyl)benzonitrile], for which the pIC50 was 7.00 to 8.00.

As for `CCOc1cc(C#N)ccc1O[C@H]1CN(S(=O)(=O)c2ccc(C(F)(F)F)cc2C#N)C[C@@]1(O)CO` [Example 12, 2-(((3R,4S)-4-(4-cyano-2-ethoxyphenoxy)-3-hydroxy-3-(hydroxymethyl)pyrrolidin-1-yl)sulfonyl)-5-(trifluoromethyl)benzonitrile], the negative logarithm of the IC50 (pIC50) was 8.00 to 10.00.

With `N#Cc1ncc(O[C@H]2CN(S(=O)(=O)c3ccc(C(F)(F)F)cc3C#N)C[C@@]2(O)CO)cn1` [Example 13, 5-(((3S,4R)-1-((2-cyano-4-(trifluoromethyl)phenyl)sulfonyl)-4-hydroxy-4-(hydroxymethyl)pyrrolidin-3-yl)oxy)pyrimidine-2-carbonitrile], the negative logarithm of the IC50 (pIC50) is 7.00 to 8.00.

`N#Cc1ccc(O[C@H]2CN(S(=O)(=O)c3ccc(C(F)(F)F)cc3C#N)C[C@@]2(O)CO)c(Cl)c1` [Example 14, 2-(((3R,4S)-4-(2-chloro-4-cyanophenoxy)-3-hydroxy-3-(hydroxymethyl)pyrrolidin-1-yl)sulfonyl)-5-(trifluoromethyl)benzonitrile]: the pIC50 was 8.00 to 10.00.

For `N#Cc1cc(C(F)(F)F)ccc1S(=O)(=O)N1C[C@H](Oc2ccc(C#N)c(F)c2F)[C@](O)(CO)C1` [Example 15, 4-(((3S,4R)-1-((2-cyano-4-(trifluoromethyl)phenyl)sulfonyl)-4-hydroxy-4-(hydroxymethyl)pyrrolidin-3-yl)oxy)-2,3-difluorobenzonitrile], the pIC50 was 8.00 to 10.00.

With `Cc1cc(C#N)ccc1O[C@H]1CN(S(=O)(=O)c2ccc(C(F)(F)F)cc2C#N)C[C@@]1(O)CO` [Example 16, 2-(((3R,4S)-4-(4-cyano-2-methylphenoxy)-3-hydroxy-3-(hydroxymethyl)pyrrolidin-1-yl)sulfonyl)-5-(trifluoromethyl)benzonitrile], the negative-log IC50 (pIC50) was 8.00 to 10.00.

With `N#Cc1ccc(O[C@H]2CN(S(=O)(=O)c3ccc(C(F)(F)F)cc3C#N)C[C@@]2(O)CO)c(C(F)(F)F)c1` [Example 17, 2-(((3R,4S)-4-(4-cyano-2-(trifluoromethyl)phenoxy)-3-hydroxy-3-(hydroxymethyl)pyrrolidin-1-yl)sulfonyl)-5-(trifluoromethyl)benzonitrile], the pIC50 was 8.00 to 10.00.

In the case of `N#Cc1ccc2cc(O[C@H]3CN(S(=O)(=O)c4ccc(C(F)(F)F)cc4C#N)C[C@@]3(O)CO)ccc2c1` [Example 18, 6-(((3S,4R)-1-((2-cyano-4-(trifluoromethyl)phenyl)sulfonyl)-4-hydroxy-4-(hydroxymethyl)pyrrolidin-3-yl)oxy)-2-naphthonitrile], the pIC50 is 7.00 to 8.00.

Regarding `N#Cc1cc(F)c(O[C@H]2CN(S(=O)(=O)c3ccc(C(F)(F)F)cc3C#N)C[C@@]2(O)CO)cc1F` [Example 19, 4-(((3S,4R)-1-((2-cyano-4-(trifluoromethyl)phenyl)sulfonyl)-4-hydroxy-4-(hydroxymethyl)pyrrolidin-3-yl)oxy)-2,5-difluorobenzonitrile], the pIC50 was 8.00 to 10.00.

As to `N#Cc1cc(C(F)(F)F)ccc1S(=O)(=O)N1C[C@H](Oc2cc(F)c(C#N)c(F)c2)[C@](O)(CO)C1` [Example 20, 4-(((3S,4R)-1-((2-cyano-4-(trifluoromethyl)phenyl)sulfonyl)-4-hydroxy-4-(hydroxymethyl)pyrrolidin-3-yl)oxy)-2,6-difluorobenzonitrile], the pIC50 was 8.00 to 10.00.

On to `N#Cc1ccc(O[C@H]2CN(S(=O)(=O)c3ccc(C(F)(F)F)cc3C#N)C[C@@]2(O)CO)cc1OC(F)(F)F` [Example 21, 4-(((3S,4R)-1-((2-cyano-4-(trifluoromethyl)phenyl)sulfonyl)-4-hydroxy-4-(hydroxymethyl)pyrrolidin-3-yl)oxy)-2-(trifluoromethoxy)benzonitrile], for which the pIC50 was 7.00 to 8.00.

For `N#Cc1cc(Cl)ccc1S(=O)(=O)N1C[C@H](Oc2cc(F)c(F)c(F)c2)[C@](O)(CO)C1` [Example 22, 5-chloro-2-(((3R,4S)-3-hydroxy-3-(hydroxymethyl)-4-(3,4,5-trifluorophenoxy)pyrrolidin-1-yl)sulfonyl)benzonitrile], the pIC50 is 8.00 to 10.00.

Regarding `N#Cc1cc(Cl)ccc1S(=O)(=O)N1C[C@H](Oc2ccc(F)c(F)c2F)[C@](O)(CO)C1` [Example 23, 5-chloro-2-(((3R,4S)-3-hydroxy-3-(hydroxymethyl)-4-(2,3,4-trifluorophenoxy)pyrrolidin-1-yl)sulfonyl)benzonitrile], the pIC50 is 8.00 to 10.00.

Consider `N#Cc1cc(Cl)ccc1S(=O)(=O)N1C[C@H](Oc2cc(F)c(F)cc2F)[C@](O)(CO)C1` [Example 24, 5-chloro-2-(((3R,4S)-3-hydroxy-3-(hydroxymethyl)-4-(2,4,5-trifluorophenoxy)pyrrolidin-1-yl)sulfonyl)benzonitrile], for which the pIC50 was 8.00 to 10.00.

Regarding `N#Cc1cc(C(F)(F)F)ccc1S(=O)(=O)N1C[C@H](Oc2ccc(F)c(F)c2)[C@](O)(CO)C1` [Example 25, 2-(((3R,4S)-4-(3,4-difluorophenoxy)-3-hydroxy-3-(hydroxymethyl)pyrrolidin-1-yl)sulfonyl)-5-(trifluoromethyl)benzonitrile], the negative logarithm of the IC50 (pIC50) is 8.00 to 10.00.

For the molecule `N#Cc1cc(C(F)(F)F)ccc1S(=O)(=O)N1C[C@H](Oc2cc(F)c(F)c(F)c2)[C@](O)(CO)C1` [Example 26, 2-(((3R,4S)-3-hydroxy-3-(hydroxymethyl)-4-(3,4,5-trifluorophenoxy)pyrrolidin-1-yl)sulfonyl)-5-(trifluoromethyl)benzonitrile], the pIC50 was 7.00 to 8.00.

`N#Cc1cc(C(F)(F)F)ccc1S(=O)(=O)N1C[C@H](Oc2cc(F)c(F)cc2F)[C@](O)(CO)C1` [Example 27, 2-(((3R,4S)-3-hydroxy-3-(hydroxymethyl)-4-(2,4,5-trifluorophenoxy)pyrrolidin-1-yl)sulfonyl)-5-(trifluoromethyl)benzonitrile]: the pIC50 is 8.00 to 10.00.
